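Cells were grown in 96-well plates and exposed to each compound for 48 hours at five concentrations; endpoints were interpolated linearly between bracketing concentrations, or set to the highest concentration if not reached. GI50 marks 50% less growth.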 The source made the active and inactive calls. Rule as the data show it: active = GI50 up to about 1.1 µM and inactive = higher.
Key:
Assay in all cases: NCI-60 cell line screen, 48 h
SN12C = system: SN12C
SF-539 = system: SF-539
OVCAR-3 = system: OVCAR-3
NCI-H226 = system: NCI-H226
MDA-N = system: MDA-N
EKVX = system: EKVX
LOX IMVI = system: LOX IMVI
SNB-75 = system: SNB-75
SF-295 = system: SF-295
786-0 = system: 786-0
PC-3 = system: PC-3
CAKI-1 = system: CAKI-1
M14 = system: M14
SW-620 = system: SW-620
SK-MEL-28 = system: SK-MEL-28
SR = system: SR
A498 = system: A498
HCT-15 = system: HCT-15
Hs-578T = system: Hs-578T

Structure (SMILES)	GI50 (SN12C)	GI50 (SF-539)	GI50 (OVCAR-3)	GI50 (NCI-H226)	GI50 (MDA-N)	GI50 (EKVX)	GI50 (LOX IMVI)	GI50 (SNB-75)	GI50 (SF-295)	GI50 (786-0)	GI50 (PC-3)	GI50 (CAKI-1)	GI50 (M14)	GI50 (SW-620)	GI50 (SK-MEL-28)	GI50 (SR)	GI50 (A498)	GI50 (HCT-15) [µM]	GI50 (Hs-578T)
CC(=O)C1C(=O)C(=O)N(c2cccc(C)c2C)C1=O (stereo unspecified)	> 100 µM (inactive)	> 100 µM (inactive)	> 100 µM (inactive)	> 100 µM (inactive)	> 100 µM (inactive)	> 100 µM (inactive)	> 100 µM (inactive)	> 100 µM (inactive)	> 100 µM (inactive)	> 100 µM (inactive)	> 100 µM (inactive)	> 100 µM (inactive)	> 100 µM (inactive)	–	–	–	–	–	–
CN1C(=O)[C@@H]2N(CSC2(C)C)C1=S	> 100 µM (inactive)	> 100 µM (inactive)	> 100 µM (inactive)	> 100 µM (inactive)	> 100 µM (inactive)	> 100 µM (inactive)	–	> 100 µM (inactive)	> 100 µM (inactive)	> 100 µM (inactive)	> 100 µM (inactive)	> 100 µM (inactive)	> 100 µM (inactive)	> 100 µM (inactive)	> 100 µM (inactive)	> 100 µM (inactive)	> 100 µM (inactive)	> 100	–
C/C(=N\N=C(\N)OB(F)F)c1ccccn1	> 100 µM (inactive)	> 100 µM (inactive)	92 µM (inactive)	40.8 µM (inactive)	71.9 µM (inactive)	18.5 µM (inactive)	28.2 µM (inactive)	7.23 µM (inactive)	66.8 µM (inactive)	40.4 µM (inactive)	–	> 100 µM (inactive)	> 100 µM (inactive)	> 100 µM (inactive)	> 100 µM (inactive)	76.6 µM (inactive)	> 100 µM (inactive)	93.8	28.6 µM (inactive)
Cc1ccc(-n2nncc2[Si](C)(C)C)s1	> 100 µM (inactive)	> 100 µM (inactive)	> 100 µM (inactive)	> 100 µM (inactive)	> 100 µM (inactive)	–	> 100 µM (inactive)	–	> 100 µM (inactive)	> 100 µM (inactive)	> 100 µM (inactive)	> 100 µM (inactive)	> 100 µM (inactive)	> 100 µM (inactive)	> 100 µM (inactive)	–	> 100 µM (inactive)	> 100	> 100 µM (inactive)
O=C(CC(C(=O)c1ccco1)c1ccco1)c1ccco1 (stereo unspecified)	> 100 µM (inactive)	> 100 µM (inactive)	> 100 µM (inactive)	> 100 µM (inactive)	> 100 µM (inactive)	> 100 µM (inactive)	> 100 µM (inactive)	> 100 µM (inactive)	> 100 µM (inactive)	> 100 µM (inactive)	–	> 100 µM (inactive)	> 100 µM (inactive)	> 100 µM (inactive)	> 100 µM (inactive)	> 100 µM (inactive)	> 100 µM (inactive)	–	> 100 µM (inactive)
Cc1ccc(S(=O)(=O)Nn2c(-c3ccccc3)c(C#N)c(-c3ccc(Cl)cc3)c(C#N)c2=O)cc1	35.7 µM (inactive)	21.1 µM (inactive)	–	–	28.4 µM (inactive)	–	21.4 µM (inactive)	–	26.8 µM (inactive)	6.79 µM (inactive)	26.2 µM (inactive)	55.7 µM (inactive)	18.4 µM (inactive)	30.4 µM (inactive)	24.4 µM (inactive)	–	21.8 µM (inactive)	26.9	–
COc1cc(COC(=O)N(C)[C@@H](Cc2ccccc2)C(=O)O)c([N+](=O)[O-])cc1OC	> 100 µM (inactive)	> 100 µM (inactive)	> 100 µM (inactive)	> 100 µM (inactive)	> 100 µM (inactive)	> 100 µM (inactive)	–	> 100 µM (inactive)	> 100 µM (inactive)	> 100 µM (inactive)	> 100 µM (inactive)	–	> 100 µM (inactive)	> 100 µM (inactive)	–	–	–	> 100	> 100 µM (inactive)
CN1Cc2cc3cc4c(cc3nc2N(C)C1)OCCO4	> 100 µM (inactive)	> 100 µM (inactive)	–	> 100 µM (inactive)	> 100 µM (inactive)	> 100 µM (inactive)	> 100 µM (inactive)	> 100 µM (inactive)	> 100 µM (inactive)	> 100 µM (inactive)	> 100 µM (inactive)	> 100 µM (inactive)	> 100 µM (inactive)	> 100 µM (inactive)	–	–	68.4 µM (inactive)	> 100	–
C[n+]1cc(C(O)c2ccc3c(c2)OCO3)c2ccccc2c1 (stereo unspecified)	40.6 µM (inactive)	30.2 µM (inactive)	28.8 µM (inactive)	20.6 µM (inactive)	–	27 µM (inactive)	46 µM (inactive)	41.1 µM (inactive)	28.6 µM (inactive)	36.5 µM (inactive)	–	13.9 µM (inactive)	25.4 µM (inactive)	44.2 µM (inactive)	–	–	29.9 µM (inactive)	33.5	–
O=C(O)c1cccc(/C=C/c2ccccc2)c1	> 100 µM (inactive)	> 100 µM (inactive)	> 100 µM (inactive)	> 100 µM (inactive)	–	> 100 µM (inactive)	> 100 µM (inactive)	> 100 µM (inactive)	> 100 µM (inactive)	> 100 µM (inactive)	> 100 µM (inactive)	> 100 µM (inactive)	> 100 µM (inactive)	> 100 µM (inactive)	> 100 µM (inactive)	–	> 100 µM (inactive)	> 100	> 100 µM (inactive)
CC1CC(=O)Nc2ccc(/N=N/N(C)C)cc2N1C=O (stereo unspecified)	> 100 µM (inactive)	–	> 100 µM (inactive)	> 100 µM (inactive)	> 100 µM (inactive)	> 100 µM (inactive)	–	> 100 µM (inactive)	> 100 µM (inactive)	> 100 µM (inactive)	> 100 µM (inactive)	> 100 µM (inactive)	> 100 µM (inactive)	> 100 µM (inactive)	> 100 µM (inactive)	–	–	> 100	> 100 µM (inactive)
[N-]=[N+]=CC(=O)OC1CCc2ccccc21 (stereo unspecified)	42.5 µM (inactive)	–	> 100 µM (inactive)	> 100 µM (inactive)	> 100 µM (inactive)	> 100 µM (inactive)	> 100 µM (inactive)	–	40.8 µM (inactive)	61.9 µM (inactive)	> 100 µM (inactive)	26 µM (inactive)	–	> 100 µM (inactive)	> 100 µM (inactive)	> 100 µM (inactive)	> 100 µM (inactive)	> 100	–
COc1c(O)c(OC)c(C(=O)/C=C/c2ccccc2)c(O)c1OC [PEDICIN]	18.3 µM (inactive)	30.5 µM (inactive)	22.2 µM (inactive)	29.4 µM (inactive)	20.9 µM (inactive)	23.1 µM (inactive)	30.3 µM (inactive)	30.3 µM (inactive)	35.6 µM (inactive)	32.4 µM (inactive)	41.6 µM (inactive)	56.1 µM (inactive)	37.6 µM (inactive)	27.9 µM (inactive)	33.3 µM (inactive)	–	–	28.8	30.5 µM (inactive)
